Experimental data reported in ChEMBL document CHEMBL4673202, “Design of Potent and Druglike Nonphenolic Inhibitors for Catechol O-Methyltransferase Derived from a Fragment Screening Approach Targeting the S-Adenosyl-l-methionine Pocket” (J Med Chem, 2016).
pIC50: −log10 of the molar value. ≈ marks a conversion by molar mass, not a printed value.

Experiments:
[1] = target: T1, Catechol O-methyltransferase (Homo sapiens, UniProt P21964); assay: Inhibition of recombinant wild-type human COMT expressed in Escherichia coli BL21 using 4-nitrocatechol-Alexa488 as substrate in presence of cofactor SAM preincubated for 1 min followed by substrate addition and measured every 60 sec up to 180 times by fluorescence based microtiter plate reader analysis
T1 sequence (P21964 whole entry): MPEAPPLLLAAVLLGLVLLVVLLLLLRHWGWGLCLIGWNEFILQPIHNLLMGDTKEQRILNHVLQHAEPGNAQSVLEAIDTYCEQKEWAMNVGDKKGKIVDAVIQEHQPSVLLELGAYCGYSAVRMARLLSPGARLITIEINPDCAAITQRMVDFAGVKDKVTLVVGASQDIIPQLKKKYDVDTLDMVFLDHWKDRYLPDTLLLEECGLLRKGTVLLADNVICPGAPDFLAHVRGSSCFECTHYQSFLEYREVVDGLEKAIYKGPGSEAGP

[2] = Solubility of compound; type: physicochemical
[3] = Distribution coefficient, log D of compound in octanol and water at pH 7.4; type: physicochemical

pIC50 [1] | solubility [2] [µg/mL] | logD [3] | SMILES
6.07 | 5 (≈ 16 µM) | 3.9 | COc1ccc([C@H](C)c2cc(-c3sc(C)nc3C)n[nH]2)cc1
3.89 |  |  | Cc1nc(C)c(-c2cc(-c3ccccc3)[nH]n2)s1
< 3.20 |  |  | Cc1nc(C2CC2)c(-c2cc[nH]n2)s1
6.15 | 5 (≈ 17.6 µM) | 4 | Cc1nc(C)c(-c2cc([C@H](C)c3ccccc3)[nH]n2)s1
6.00 | 2 (≈ 6.68 µM) | 3.7 | COc1ccc(Cc2cc(-c3sc(C)nc3C)n[nH]2)cc1
4.68 | 24 (≈ 80.7 µM) | 4.3 | CCC(c1ccccc1)c1cc(-c2sc(C)nc2C)n[nH]1 (stereo not given)
< 3.37 |  |  | Cc1nc(Cc2ccccc2)sc1-c1cc[nH]n1
6.05 | 3 (≈ 10.6 µM) | 3.9 | Cc1nc(C)c(-c2cc(C(C)c3ccccc3)[nH]n2)s1 (stereo not given)
5.96 | 4 (≈ 13.4 µM) | 4.1 | Cc1nc(C)c(-c2cc(C(C)(C)c3ccccc3)[nH]n2)s1
4.96 |  |  | Cc1ccc(-c2nc(C)c(-c3cc[nH]n3)s2)cc1
4.68 |  |  | CCc1nc(C)c(-c2cc[nH]n2)s1
5.49 |  |  | Cc1nc(C)c(-c2cc(Cc3ccc(-c4ccccc4)cc3)[nH]n2)s1
< 3.20 |  |  | c1ccc(-c2ncc(-c3cc[nH]n3)s2)cc1
5.70 | 15 (≈ 55.7 µM) | 3.6 | Cc1nc(C)c(-c2cc(Cc3ccccc3)[nH]n2)s1
4.47 | 8 (≈ 26.9 µM) | 4.4 | Cc1nc(C)c(-c2cc(CCCc3ccccc3)[nH]n2)s1
5.96 |  |  | Cc1nc(C)c(-c2cc([C@@H](C)c3ccccc3)[nH]n2)s1
5.89 | 4 (≈ 11.4 µM) | 3.9 | Cc1nc(C)c(-c2cc(Cc3ccc(-c4cnn(C)c4)cc3)[nH]n2)s1
6.68 | 1 (≈ 3.39 µM) | 4.2 | Cc1nc(C)c(-c2cc(C3(c4ccccc4)CC3)[nH]n2)s1
4.62 |  |  | Cc1nc(-c2ccccc2)sc1-c1cc[nH]n1
4.70 |  | 2.6 | CCc1cc(-c2sc(C)nc2C)n[nH]1
7.12 | 2 (≈ 6.15 µM) | 4.1 | COc1ccc(C2(c3cc(-c4sc(C)nc4C)n[nH]3)CC2)cc1
5.10 | 4 (≈ 14.1 µM) | 4 | Cc1nc(C)c(-c2cc(CCc3ccccc3)[nH]n2)s1
6.33 | 5 (≈ 16 µM) | 4 | COc1ccc([C@@H](C)c2cc(-c3sc(C)nc3C)n[nH]2)cc1
